Data taken from ChEMBL document CHEMBL3588828, “A Selective, Cell-Permeable Nonphosphorylated Bicyclic Peptidyl Inhibitor against Peptidyl-Prolyl Isomerase Pin1” (J Med Chem, 2015).
Activity calls are given as the source filed them. The calls are words filed in the database; no cut-off is given here.

Columns and labels:
[1] = molecular target: T1, Peptidyl-prolyl cis-trans isomerase NIMA-interacting 1 (Homo sapiens, UniProt Q13526, S16A/Y23A); test: Binding affinity to N-terminal MBP fused and Texas-red-labeled full-length human Pin1 S16A/Y23A mutant expressed in Escherichia coli assessed as increase in fluorescence anisotropy by spectrofluorimetry; conditions: read-out: Kd
T1 sequence (Q13526 whole entry S16A/Y23A, the tested form may be a part): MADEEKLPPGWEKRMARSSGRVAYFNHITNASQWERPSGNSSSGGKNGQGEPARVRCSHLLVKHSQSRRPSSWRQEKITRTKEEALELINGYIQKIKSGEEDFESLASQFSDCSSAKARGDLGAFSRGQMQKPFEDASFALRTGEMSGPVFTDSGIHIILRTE

[2] = test system: Peptidyl-prolyl cis-trans isomerase NIMA-interacting 1 (Homo sapiens), Q13526 [S16A,Y23A]; test: (§1) Inhibition of FITC-labeled peptide-1 binding to N-terminal MBP fused and Texas-red-labeled full-length human Pin1 S16A/Y23A mutant expressed in Escherichia coli assessed as increase in fluorescence anisotropy by spectrofluorimetry
Chain of Peptidyl-prolyl cis-trans isomerase NIMA-interacting 1 (Homo sapiens), Q13526 [S16A,Y23A] (Q13526 whole entry S16A/Y23A, the tested form may be a part): as above

[3] = molecular target: T1, Peptidyl-prolyl cis-trans isomerase NIMA-interacting 1; test: as §1
[4] = test system: Peptidyl-prolyl cis-trans isomerase NIMA-interacting 1 (Homo sapiens), Q13526 [S16A,Y23A]; test: (§2) Inhibition of N-terminal MBP fused and Texas-red-labeled full-length human Pin1 S16A/Y23A mutant expressed in Escherichia coli pre-incubated for 10 mins before addition of Suc-Ala-Glu-Pro-Phe-pNA substrate in presence of alpha-chymotrypsin by UV/Vis spectrophotometry
[5] = molecular target: T1, Peptidyl-prolyl cis-trans isomerase NIMA-interacting 1; test: as §2
Albumin = Albumin (Bos taurus, UniProt P02769); test: Binding affinity to bovine serum albumin; type: ADME
Chain of Albumin (P02769 whole entry): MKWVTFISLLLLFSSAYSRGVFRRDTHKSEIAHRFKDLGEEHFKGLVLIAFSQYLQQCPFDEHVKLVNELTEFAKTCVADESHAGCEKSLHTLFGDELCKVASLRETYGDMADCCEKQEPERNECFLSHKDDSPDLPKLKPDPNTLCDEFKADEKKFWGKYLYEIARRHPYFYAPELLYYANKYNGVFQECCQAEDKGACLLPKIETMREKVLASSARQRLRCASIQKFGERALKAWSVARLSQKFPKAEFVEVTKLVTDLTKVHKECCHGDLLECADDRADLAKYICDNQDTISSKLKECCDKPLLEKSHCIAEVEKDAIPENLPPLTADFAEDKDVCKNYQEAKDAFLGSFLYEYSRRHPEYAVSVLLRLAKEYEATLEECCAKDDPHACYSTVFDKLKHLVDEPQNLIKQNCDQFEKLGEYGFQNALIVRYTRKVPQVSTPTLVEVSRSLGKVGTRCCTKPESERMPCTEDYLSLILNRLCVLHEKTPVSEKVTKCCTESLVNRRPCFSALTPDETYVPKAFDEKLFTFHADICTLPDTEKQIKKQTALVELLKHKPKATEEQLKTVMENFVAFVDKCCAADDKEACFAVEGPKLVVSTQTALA

[6] = molecular target: T2, Tyrosine-protein phosphatase non-receptor type 1 (Homo sapiens) (UniProt P18031); test: Binding affinity to PTP1B (unknown origin)
T2 sequence (whole entry): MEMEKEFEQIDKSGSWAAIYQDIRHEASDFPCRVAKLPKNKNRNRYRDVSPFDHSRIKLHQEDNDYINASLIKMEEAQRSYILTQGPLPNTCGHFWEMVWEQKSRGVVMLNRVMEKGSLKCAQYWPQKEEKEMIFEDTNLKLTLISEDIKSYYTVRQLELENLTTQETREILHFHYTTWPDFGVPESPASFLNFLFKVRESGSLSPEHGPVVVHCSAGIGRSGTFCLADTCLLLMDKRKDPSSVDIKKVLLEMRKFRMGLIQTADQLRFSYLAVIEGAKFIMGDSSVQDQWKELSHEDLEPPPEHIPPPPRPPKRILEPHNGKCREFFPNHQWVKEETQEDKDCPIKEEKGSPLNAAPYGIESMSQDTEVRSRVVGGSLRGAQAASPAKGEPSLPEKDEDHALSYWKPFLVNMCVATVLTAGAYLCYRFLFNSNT

[7] = molecular target: Tyrosine-protein phosphatase non-receptor type 6 (Homo sapiens) (UniProt P29350); test: Binding affinity to SHP1 (unknown origin)
Chain of Tyrosine-protein phosphatase non-receptor type 6 (Homo sapiens) (P29350 whole entry): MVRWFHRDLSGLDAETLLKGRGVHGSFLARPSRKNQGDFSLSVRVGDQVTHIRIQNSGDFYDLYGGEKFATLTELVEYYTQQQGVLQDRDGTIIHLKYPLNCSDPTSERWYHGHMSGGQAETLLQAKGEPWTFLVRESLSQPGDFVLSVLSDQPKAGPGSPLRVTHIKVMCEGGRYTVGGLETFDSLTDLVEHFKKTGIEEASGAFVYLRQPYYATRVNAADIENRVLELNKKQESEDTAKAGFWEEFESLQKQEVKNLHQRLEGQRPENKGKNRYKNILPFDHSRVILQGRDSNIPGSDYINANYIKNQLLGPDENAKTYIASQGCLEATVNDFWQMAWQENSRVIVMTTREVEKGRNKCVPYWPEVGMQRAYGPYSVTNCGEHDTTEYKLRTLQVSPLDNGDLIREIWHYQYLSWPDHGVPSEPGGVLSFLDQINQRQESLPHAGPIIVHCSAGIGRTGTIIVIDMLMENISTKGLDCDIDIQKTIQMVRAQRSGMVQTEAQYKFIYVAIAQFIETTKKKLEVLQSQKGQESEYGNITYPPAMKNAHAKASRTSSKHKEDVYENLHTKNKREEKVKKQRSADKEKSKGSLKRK

[8] = molecular target: T3, Tyrosine-protein phosphatase non-receptor type 11 (Homo sapiens) (UniProt Q06124); test: Binding affinity to SHP2 (unknown origin)
T3 sequence (whole entry): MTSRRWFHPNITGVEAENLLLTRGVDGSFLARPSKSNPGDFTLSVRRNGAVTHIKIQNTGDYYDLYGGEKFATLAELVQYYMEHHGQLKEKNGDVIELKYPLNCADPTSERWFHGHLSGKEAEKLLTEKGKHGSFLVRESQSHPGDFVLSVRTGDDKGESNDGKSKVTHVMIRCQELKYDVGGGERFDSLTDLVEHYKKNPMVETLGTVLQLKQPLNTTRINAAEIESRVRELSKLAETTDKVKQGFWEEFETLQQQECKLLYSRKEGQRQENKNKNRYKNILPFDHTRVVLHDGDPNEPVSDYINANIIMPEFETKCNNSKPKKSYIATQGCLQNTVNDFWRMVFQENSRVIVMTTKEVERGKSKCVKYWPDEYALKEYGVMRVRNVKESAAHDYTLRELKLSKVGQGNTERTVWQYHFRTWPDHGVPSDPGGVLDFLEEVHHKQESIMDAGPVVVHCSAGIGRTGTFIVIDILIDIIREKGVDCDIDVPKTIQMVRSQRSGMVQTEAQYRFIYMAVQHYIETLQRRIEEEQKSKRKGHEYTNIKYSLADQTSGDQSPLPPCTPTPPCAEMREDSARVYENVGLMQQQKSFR

[9] = molecular target: Growth factor receptor-bound protein 2 (Homo sapiens) (UniProt P62993); test: Binding affinity to Grb2 SH2 domain (unknown origin)
Chain of Growth factor receptor-bound protein 2 (Homo sapiens) (P62993 whole entry, looked up, the tested form may be a part): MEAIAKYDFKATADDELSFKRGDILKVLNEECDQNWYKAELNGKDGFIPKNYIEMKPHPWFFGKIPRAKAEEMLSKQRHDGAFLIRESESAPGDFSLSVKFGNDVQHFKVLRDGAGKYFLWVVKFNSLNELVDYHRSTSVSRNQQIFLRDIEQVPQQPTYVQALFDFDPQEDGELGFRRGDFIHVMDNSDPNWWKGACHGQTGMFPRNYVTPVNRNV

[10] = molecular target: GTPase KRas (Homo sapiens) (UniProt P01116); test: Binding affinity to K-Ras (unknown origin)
Chain of GTPase KRas (Homo sapiens) (P01116 whole entry, looked up): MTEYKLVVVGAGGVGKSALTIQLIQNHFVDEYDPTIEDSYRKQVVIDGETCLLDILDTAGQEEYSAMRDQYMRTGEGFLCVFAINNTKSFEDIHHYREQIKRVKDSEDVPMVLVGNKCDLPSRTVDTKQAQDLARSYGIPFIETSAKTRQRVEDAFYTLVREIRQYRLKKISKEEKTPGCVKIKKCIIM

[11] = molecular target: Tumor necrosis factor (Homo sapiens) (UniProt P01375); test: Binding affinity to TNFalpha (unknown origin)
Chain of Tumor necrosis factor (Homo sapiens) (P01375 whole entry): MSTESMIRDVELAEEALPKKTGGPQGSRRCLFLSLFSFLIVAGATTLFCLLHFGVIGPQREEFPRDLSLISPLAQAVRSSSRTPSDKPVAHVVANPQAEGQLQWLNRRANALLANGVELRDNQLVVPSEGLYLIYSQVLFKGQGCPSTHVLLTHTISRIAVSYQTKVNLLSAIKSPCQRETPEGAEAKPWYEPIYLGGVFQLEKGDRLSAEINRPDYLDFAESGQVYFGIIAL

[12] = molecular target: T4, Peptidyl-prolyl cis-trans isomerase NIMA-interacting 4 (Homo sapiens, UniProt Q9Y237); test: Inhibition of Pin4 (unknown origin) at 5 uM pre-incubated for 10 mins before addition of Suc-Ala-Glu-Pro-Phe-pNA substrate in presence of alpha-chymotrypsin by UV/Vis spectrophotometry
T4 sequence (Q9Y237 whole entry): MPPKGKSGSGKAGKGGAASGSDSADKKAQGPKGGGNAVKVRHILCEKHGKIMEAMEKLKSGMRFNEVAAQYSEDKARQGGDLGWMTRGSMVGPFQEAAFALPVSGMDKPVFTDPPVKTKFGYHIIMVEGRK

[13] = molecular target: T4, Peptidyl-prolyl cis-trans isomerase NIMA-interacting 4; test: Inhibition of Pin4 (unknown origin) pre-incubated for 10 mins before addition of Suc-Ala-Glu-Pro-Phe-pNA substrate in presence of alpha-chymotrypsin by UV/Vis spectrophotometry
[14] = molecular target: Peptidyl-prolyl cis-trans isomerase A (Homo sapiens) (UniProt P62937); test: Inhibition of cyclophilin A (unknown origin) up to 5 uM pre-incubated for 10 mins before addition of Suc-Ala-Glu-Pro-Phe-pNA substrate in presence of alpha-chymotrypsin by UV/Vis spectrophotometry
Chain of Peptidyl-prolyl cis-trans isomerase A (Homo sapiens) (P62937 whole entry, looked up): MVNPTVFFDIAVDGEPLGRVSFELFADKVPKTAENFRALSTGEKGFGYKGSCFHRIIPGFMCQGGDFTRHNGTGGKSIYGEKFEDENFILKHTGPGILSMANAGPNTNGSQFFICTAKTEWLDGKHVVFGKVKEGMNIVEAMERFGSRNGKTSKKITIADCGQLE

[15] = Stability in 25% human serum assessed as intact parent compound level at 5 uM after 6 hrs incubated at 37 degC by reversed-phase HPLC method; type: ADME, cell-free; conditions: read-out: Stability
HeLa [16] = test: Drug uptake in human HeLa cells assessed as mean fluorescence intensity at 5 uM using FITC-labeled compound incubated for 2 hrs by flow cytometry (reference value: 86); type: ADME, cell-based
HeLa [17] = test: Antiproliferative activity against human HeLa cells assessed as reduction in cell growth incubated for 72 hrs by MTT assay; type: functional, cell-based; conditions: Homo sapiens, HeLa, 72 h; read-out: IC50
HeLa [18] = test: Growth inhibition of human HeLa cells at 5 uM incubated for 3 days by MTT assay; type: functional; conditions: 72 h, read-out: GI
[19] = molecular target: Peptidyl-prolyl cis-trans isomerase NIMA-interacting 1 (Homo sapiens) (UniProt Q13526); test: Inhibition of Pin1 in human HeLa cells assessed as increase in PML protein levels at 0.2 uM incubated for 2 hrs by Western blotting method relative to untreated control; type: cell-based
Chain of Peptidyl-prolyl cis-trans isomerase NIMA-interacting 1 (Homo sapiens) (Q13526 whole entry): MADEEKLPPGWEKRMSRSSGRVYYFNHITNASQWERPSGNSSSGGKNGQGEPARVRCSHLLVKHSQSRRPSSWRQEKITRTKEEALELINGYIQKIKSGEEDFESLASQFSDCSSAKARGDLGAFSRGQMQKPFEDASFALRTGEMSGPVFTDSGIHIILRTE

[20] = molecular target: Peptidyl-prolyl cis-trans isomerase NIMA-interacting 1 (Homo sapiens) (UniProt Q13526); test: Inhibition of Pin1 in human HeLa cells assessed as increase in PML protein levels at 1 uM incubated for 2 hrs by Western blotting method relative to untreated control; type: cell-based
FKBP1A = test: Inhibition of FKBP12 (unknown origin) up to 5 uM pre-incubated for 10 mins before addition of Suc-Ala-Glu-Pro-Phe-pNA substrate in presence of alpha-chymotrypsin by UV/Vis spectrophotometry; conditions: Homo sapiens
[21] = Stability in 25% human serum assessed as compound degradation at 5 uM after 3 hrs incubated at 37 degC by reversed-phase HPLC method; type: ADME, cell-free; conditions: read-out: Drug degradation
Serum [22] = test: Drug metabolism in 25% human serum assessed as compound 2 formation at 5 uM incubated at 37 degC by MALDI-TOF mass spectrometry; type: ADME, cell-free
Serum [23] = test: Drug level in 25% human serum treated with at 5 uM peptide-1 assessed as compound formation incubated at 37 degC by MALDI-TOF mass spectrometry; type: ADME, cell-free

C[C@@H]1NC(=O)[C@H](CCCNC(=N)N)NC(=O)[C@H](Cc2ccc3ccccc3c2)NC(=O)[C@H]2CCCCN2C(=O)[C@@H]([C@H](C)O)NC(=O)[C@H](Cc2ccc(F)cc2)NC(=O)[C@@H](Cc2ccc(F)cc2)NC(=O)c2cc3cc(c2)C(=O)NC[C@H](NC(=O)[C@@H](C)NC1=O)C(=O)N[C@@H](Cc1ccccc1)C(=O)N[C@@H](Cc1ccc2ccccc2c1)C(=O)N[C@@H](CCCNC(=N)N)C(=O)N[C@@H](CCCNC(=N)N)C(=O)N[C@@H](CCCNC(=N)N)C(=O)N[C@@H](CCCNC(=N)N)C(=O)N[C@H](C(=O)N[C@@H](CCCCN)C(=O)O)CNC3=O
Kd [1]: 120 nM | inhibition [2]: Dose-dependent effect | IC50 [3]: 190 nM | inhibition [4]: Dose-dependent effect | IC50 [5]: 170 nM | Kd (Albumin): 20000 nM | Activity [6]: inactive | Activity [7]: inactive | Activity [8]: inactive | Activity [9]: inactive | Activity [10]: inactive | Activity [11]: inactive | inhibition [12]: 15% | IC50 [13]: 34000 nM | inhibition [14]: inactive | remaining at 6 h, 5 µM [15]: 97% | Flu intensity (HeLa [16]): 8320 | IC50 (HeLa [17]): 1000 nM | inhibition of growth at 5 µM (HeLa [18]): > 60% | fold change (FC) [19]: 1.8 | fold change (FC) [20]: 3.3 | inhibition (FKBP1A): inactive

C[C@@H]1NC(=O)[C@H](CCCNC(=N)N)NC(=O)[C@H](Cc2ccc3ccccc3c2)NC(=O)[C@@H]2CCCCN2C(=O)[C@@H]([C@H](C)OP(=O)(O)O)NC(=O)CN(C)C(=O)[C@@H](C)NC(=O)c2cc3cc(c2)C(=O)NC[C@H](NC(=O)[C@@H](C)NC1=O)C(=O)N[C@@H](Cc1ccccc1)C(=O)N[C@@H](Cc1ccc2ccccc2c1)C(=O)N[C@@H](CCCNC(=N)N)C(=O)N[C@@H](CCCNC(=N)N)C(=O)N[C@@H](CCCNC(=N)N)C(=O)N[C@@H](CCCNC(=N)N)C(=O)N[C@H](C(=O)N[C@@H](CCCCN)C(=O)O)CNC3=O
Kd [1]: 72 nM | metabolised at 3 h, 5 µM [21]: 50% | Drug metabolism (Serum [22]): metabolite_detected | Flu intensity (HeLa [16]): 2040 | IC50 (HeLa [17]): 2500 nM

C[C@@H]1NC(=O)[C@H](CCCNC(=N)N)NC(=O)[C@H](Cc2ccc3ccccc3c2)NC(=O)[C@@H]2CCCCN2C(=O)[C@@H]([C@H](C)O)NC(=O)CN(C)C(=O)[C@@H](C)NC(=O)c2cc3cc(c2)C(=O)NC[C@H](NC(=O)[C@@H](C)NC1=O)C(=O)N[C@@H](Cc1ccccc1)C(=O)N[C@@H](Cc1ccc2ccccc2c1)C(=O)N[C@@H](CCCNC(=N)N)C(=O)N[C@@H](CCCNC(=N)N)C(=O)N[C@@H](CCCNC(=N)N)C(=O)N[C@@H](CCCNC(=N)N)C(=O)N[C@H](C(=O)N[C@@H](CCCCN)C(=O)O)CNC3=O
Kd [1]: 620 nM | Drug metabolism (Serum [23]): metabolite_detected
